Test system: HEK293T cells carrying the ATF4 luciferase reporter
Assay: ATF4-Luc assay, in vitro model of Vanishing Cell White Matter Disease (VWMD)
Type: cell-based
Conditions: Homo sapiens, HEK-293T, 1 μg/mL tunicamycin, 7 hours, One Glo luminescence
How it was run: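 Stable HEK293T line with human ATF4 5′-UTR–firefly luciferase reporter treated with 1 μg/mL tunicamycin plus 200 nM compound for 7 h. Luminescence read; EC50 derived.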

Cn1nc(C2CC2)cc1C(=O)NC12CC(NC(=O)COc3ccc(Cl)c(F)c3)(C1)C2 [Compound 329, N-{3-[2-(4-chloro-3-fluorophenoxy)acetamido]bicyclo[1.1.1]pentan-1-yl}-3-cyclopropyl-1-methyl-1H-pyrazole-5-carboxamide]
EC50: 50 to 250 nM

Cn1nc(C(=O)NC23CCC(NC(=O)COc4ccc(Cl)c(F)c4)(CC2)C(O)C3)cc1C(F)(F)F (stereo not drawn) [Compound 565, N-{4-[2-(4-chloro-3-fluorophenoxy)acetamido]-3-hydroxybicyclo[2.2.2]octan-1-yl}-1-methyl-5-(trifluoromethyl)-1H-pyrazole-3-carboxamide]
EC50: 50 to 250 nM

Cc1ccc(C(=O)NC23CC(NC(=O)COc4ccc(Cl)c(F)c4)(C2)C3)c(C)n1 [Compound 684, N-{3-[2-(4-chloro-3-fluorophenoxy)acetamido]bicyclo[1.1.1]pentan-1-yl}-2,6-dimethylpyridine-3-carboxamide]
EC50: 1000 to 2000 nM

Cc1cc(C(=O)NC23CC(NC(=O)COc4ccc(Cl)c(F)c4)(C2)C3)ns1 [Compound 677, N-{3-[2-(4-chloro-3-fluorophenoxy)acetamido]bicyclo[1.1.1]pentan-1-yl}-5-methyl-1,2-thiazole-3-carboxamide]
EC50: 250 to 1000 nM

COc1ccc(C(=O)NC23CCC(NC(=O)COc4ccc(Cl)c(F)c4)(CC2)C(O)C3)nc1 (stereo not drawn) [Compound 922, N-{4-[2-(4-chloro-3-fluorophenoxy)acetamido]-3-hydroxybicyclo[2.2.2]octan-1-yl}-5-methoxypyridine-2-carboxamide]
EC50: 250 to 1000 nM

Cc1nc2cc(C(=O)NC34CC(NC(=O)COc5ccc(Cl)c(F)c5)(C3)C4)ccc2n1C [Compound 810, N-{3-[2-(4-chloro-3-fluorophenoxy)acetamido]bicyclo[1.1.1]pentan-1-yl}-1,2-dimethyl-1H-benzimidazole-5-carboxamide]
EC50: > 2000 nM

Cn1cnc2cc(C(=O)NC34CC(NC(=O)COc5ccc(Cl)c(F)c5)(C3)C4)ccc21 [Compound 767, N-{3-[2-(4-chloro-3-fluorophenoxy)acetamido]bicyclo[1.1.1]pentan-1-yl}-1-methyl-1H-benzimidazole-5-carboxamide]
EC50: > 2000 nM

CC(=O)Nc1c(C)nn(C)c1C(=O)NC12CCC(NC(=O)COc3ccc(Cl)c(F)c3)(CC1)C(O)C2 (stereo not drawn) [Compound 505, 4-acetamido-N-{4-[2-(4-chloro-3-fluorophenoxy)acetamido]-3-hydroxybicyclo[2.2.2]octan-1-yl}-1,3-dimethyl-1H-pyrazole-5-carboxamide]
EC50: > 2000 nM

Cc1nc(C)c(C(=O)NC23CC(NC(=O)COc4ccc(Cl)c(F)c4)(C2)C3)s1 [Compound 238, N-{3-[2-(4-chloro-3-fluorophenoxy)acetamido]bicyclo[1.1.1]pentan-1-yl}-2,4-dimethyl-1,3-thiazole-5-carboxamide]
EC50: 50 to 250 nM

Cc1nnc(C(=O)NC23CCC(NC(=O)COc4ccc(Cl)c(F)c4)(CC2)C(O)C3)o1 (stereo not drawn) [Compound 516, N-{4-[2-(4-chloro-3-fluorophenoxy)acetamido]-3-hydroxybicyclo[2.2.2]octan-1-yl}-5-methyl-1,3,4-oxadiazole-2-carboxamide]
EC50: 1000 to 2000 nM

Cc1cc(C(=O)NC23CC(NC(=O)COc4ccc(Cl)c(Cl)c4)(C2)C3)n(C)n1 [Compound 441, N-{3-[2-(3,4-dichlorophenoxy)acetamido]bicyclo[1.1.1]pentan-1-yl}-1,3-dimethyl-1H-pyrazole-5-carboxamide]
EC50: < 50 nM

CC(C)c1cc(C(=O)NC23CC(NC(=O)COc4ccc(Cl)c(F)c4)(C2)C3)no1 [Compound 255, N-{3-[2-(4-chloro-3-fluorophenoxy)acetamido]bicyclo[1.1.1]pentan-1-yl}-5-(propan-2-yl)-1,2-oxazole-3-carboxamide]
EC50: 250 to 1000 nM

O=C(COc1ccc2c(c1)OC(F)(F)O2)NC12CC(NC(=O)c3ccc(C(=O)O)cc3)(C1)C2 [Compound 128, 4-[(3-{2-[(2,2-difluoro-2H-1,3-benzodioxol-5-yl)oxy]acetamido}bicyclo[1.1.1]-pentan-1-yl)carbamoyl]benzoic acid]
EC50: > 2000 nM

Cc1cnc(C(=O)NC23CCC(NC(=O)COc4ccc(Cl)c(F)c4)(C2)C3)s1 [Compound 616, N-{4-[2-(4-chloro-3-fluorophenoxy)acetamido]bicyclo[2.1.1]hexan-1-yl}-5-methyl-1,3-thiazole-2-carboxamide]
EC50: > 2000 nM

O=C(COc1ccc(Cl)c(F)c1)NC12CC(Nc3nc4ccccc4o3)(C1)C2 [Compound 360, N-{3-[(1,3-benzoxazol-2-yl)amino]bicyclo[1.1.1]pentan-1-yl}-2-(4-chloro-3-fluorophenoxy)acetamide]
EC50: > 2000 nM

Cc1nn(C)c(C(=O)NC23CC(NC(=O)COc4ccc(Cl)c(Cl)c4)(C2)C3)c1F [Compound 500, N-{3-[2-(3,4-dichlorophenoxy)acetamido]bicyclo[1.1.1]pentan-1-yl}-4-fluoro-1,3-dimethyl-1H-pyrazole-5-carboxamide]
EC50: < 50 nM

O=C(COc1ccc(Cl)c(F)c1)NC12CC(NC(=O)c3coc(C(F)(F)F)c3)(C1)C2 [Compound 544, N-{3-[2-(4-chloro-3-fluorophenoxy)acetamido]bicyclo[1.1.1]pentan-1-yl}-5-(trifluoromethyl)furan-3-carboxamide]
EC50: < 50 nM

O=C(COc1ccc(Cl)c(F)c1)NC12CCC(NC(=O)c3ccc(CO)cn3)(CC1)C[C@@H]2O [Compound 753, N-{(3S)-4-[2-(4-chloro-3-fluorophenoxy)acetamido]-3-hydroxybicyclo[2.2.2]octan-1-yl}-5-(hydroxymethyl)pyridine-2-carboxamide]
EC50: 250 to 1000 nM

O=C(COc1ccc(Cl)cc1)NC12CC(Nc3nc(-c4ccc(Cl)cc4)no3)(C1)C2 [Compound 284, 2-(4-chlorophenoxy)-N-(3-{[3-(4-chlorophenyl)-1,2,4-oxadiazol-5-yl]amino}bicyclo[1.1.1]pentan-1-yl)acetamide]
EC50: 50 to 250 nM

O=C(COc1ccc(Cl)c(F)c1)NC12CC(NC(=O)c3ccc4ocnc4c3)(C1)C2 [Compound 801, N-{3-[2-(4-chloro-3-fluorophenoxy)acetamido]bicyclo[1.1.1]pentan-1-yl}-1,3-benzoxazole-5-carboxamide]
EC50: > 2000 nM

COCc1cncc(C(=O)NC23CC(NC(=O)COc4ccc(Cl)c(F)c4)(C2)C3)c1 [Compound 568, N-{3-[2-(4-chloro-3-fluorophenoxy)acetamido]bicyclo[1.1.1]pentan-1-yl}-5-(methoxymethyl)pyridine-3-carboxamide]
EC50: 50 to 250 nM

O=C(COc1ccc(Cl)c(F)c1)NC12CC(NC(=O)c3cc4ccccc4o3)(C1)C2 [Compound 317, N-{3-[2-(4-chloro-3-fluorophenoxy)acetamido]bicyclo[1.1.1]pentan-1-yl}-1-benzofuran-2-carboxamide]
EC50: < 50 nM

Cc1cnc(C(=O)NC23CC(NC(=O)COc4ccc(Cl)c(F)c4)(C2)C3)o1 [Compound 478, N-{3-[2-(4-chloro-3-fluorophenoxy)acetamido]bicyclo[1.1.1]pentan-1-yl}-5-methyl-1,3-oxazole-2-carboxamide]
EC50: 50 to 250 nM

COc1cc(C(=O)NC23CC(NC(=O)COc4ccc(Cl)c(F)c4)(C2)C3)ccc1F [Compound 531, N-{3-[2-(4-chloro-3-fluorophenoxy)acetamido]bicyclo[1.1.1]pentan-1-yl}-4-fluoro-3-methoxybenzamide]
EC50: 1000 to 2000 nM

CCn1nc(C(=O)NC23CC(NC(=O)COc4ccc(Cl)c(F)c4)(C2)C3)cc1C [Compound 836, N-{3-[2-(4-chloro-3-fluorophenoxy)acetamido]bicyclo[1.1.1]pentan-1-yl}-1-ethyl-5-methyl-1H-pyrazole-3-carboxamide]
EC50: > 2000 nM

CCc1nc(C)c(C(=O)NC23CC(NC(=O)COc4ccc(Cl)c(F)c4)(C2)C3)o1 [Compound 906, N-{3-[2-(4-chloro-3-fluorophenoxy)acetamido]bicyclo[1.1.1]pentan-1-yl}-2-ethyl-4-methyl-1,3-oxazole-5-carboxamide]
EC50: 250 to 1000 nM

Cc1cc2c(NC34CC(NC(=O)COc5cccc(F)c5)(C3)C4)nccn2n1 [Compound 640, 2-(3-fluorophenoxy)-N-{3-[(2-methylpyrazolo[1,5-a]pyrazin-4-yl)amino]bicyclo[1.1.1]pentan-1-yl}acetamide]
EC50: 250 to 1000 nM

CCc1cnc(C(=O)NC23CCC(NC(=O)COc4ccc(Cl)c(F)c4)(C2)C3)cn1 [Compound 712, N-{4-[2-(4-chloro-3-fluorophenoxy)acetamido]bicyclo[2.1.1]hexan-1-yl}-5-ethylpyrazine-2-carboxamide]
EC50: 250 to 1000 nM

O=C(COc1ccc(Cl)c(F)c1)NC12CC(Nc3nccc(-c4ccccc4)n3)(C1)C2 [Compound 363, 2-(4-chloro-3-fluorophenoxy)-N-{3-[(4-phenylpyrimidin-2-yl)amino]bicyclo[1.1.1]pentan-1-yl}acetamide]
EC50: 1000 to 2000 nM

COc1ccnc(C(=O)NC23CC(NC(=O)COc4ccc(Cl)c(F)c4)(C2)C3)c1 [Compound 177, N-{3-[2-(4-chloro-3-fluorophenoxy)acetamido]bicyclo[1.1.1]pentan-1-yl}-4-methoxypyridine-2-carboxamide]
EC50: 250 to 1000 nM

Cc1ccc(C(=O)NC23CCC(NC(=O)COc4ccc(Cl)c(F)c4)(CC2)[C@@H](O)C3)nc1 [Compound 729, N-{(3S)-4-[2-(4-chloro-3-fluorophenoxy)acetamido]-3-hydroxybicyclo[2.2.2]octan-1-yl}-5-methylpyridine-2-carboxamide]
EC50: < 50 nM

O=C(COc1ccc(Cl)c(F)c1)NC12CCC(NC(=O)c3ccc(C(F)F)cn3)(CC1)C[C@@H]2O [Compound 752, N-{(3S)-4-[2-(4-chloro-3-fluorophenoxy)acetamido]-3-hydroxybicyclo[2.2.2]octan-1-yl}-5-(difluoromethyl)pyridine-2-carboxamide]
EC50: < 50 nM

CCc1ccc(C(=O)NC23CCC(NC(=O)COc4ccc(Cl)c(F)c4)(CC2)[C@@H](O)C3)nc1 [Compound 754, N-{(3S)-4-[2-(4-chloro-3-fluorophenoxy)acetamido]-3-hydroxybicyclo[2.2.2]octan-1-yl}-5-ethylpyridine-2-carboxamide]
EC50: < 50 nM

From patent publication US10913727B2, “Modulators of the integrated stress pathway” (Calico Life Sciences LLC, priority 2016, dated 2021)
